{"source": "patent US7595401B2", "about": "“Therapeutic compounds and their use in cancer” (Myriad Pharmaceuticals, Inc., priority 2006, dated 2009)", "note": "pIC50: −log10 of the molar value."}
{"test_system": "purified human Hsp90", "assay": "Binding Assay: fluorescence polarization with BODIPY-labeled geldanamycin", "conditions": "5 μM compound, BODIPY-GM 10 nM, Hsp90 30 nM", "in_short": "(§1)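 Compounds in 2% DMSO final compete with 10 nM BODIPY-GM for 30 nM purified human Hsp90, incubated overnight at room temperature in pH 7.3 HEPES buffer containing Na2MoO4 and DTT. Polarization (mP, ex/em 485/530) normalized to DMSO gives percent inhibition; autofluorescence-confounded data excluded.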", "units": {"% Inhibition at 5 μM Compound Concentration": "%"}}
{"smiles": "CC(C)(C)OC(=O)N1CCC(Cn2cnc(N)c3nc(Sc4cc5c(cc4Br)OCO5)nc2-3)CC1", "note": "[Example 640, tert-Butyl 4-({6-amino-8-[(6-bromo-1,3-benzodioxol-5-yl)thio]-3 H-purin-3-yl}methyl)piperidine-1-carboxylate]", "% Inhibition at 5 μM Compound Concentration": 19.00}
{"smiles": "CC(C)(C)OC(=O)N1CCCC(Cn2cnc(N)c3nc(Sc4cc5c(cc4Br)OCO5)nc2-3)C1", "note": "(stereo not shown) [Example 642, tert-Butyl 3-({6-amino-8-[(6-bromo-1,3-benzodioxol-5-yl)thio]-3 H-purin-3-yl}methyl)piperidine-1-carboxylate]", "% Inhibition at 5 μM Compound Concentration": 15.00}
{"smiles": "CC(=O)N1CCC(CCn2cnc(N)c3nc(Sc4nc5ccc([N+](=O)[O-])cc5s4)nc2-3)CC1", "note": "[Example 652, 3-[2-(1-Acetylpiperidin-4-yl)ethyl]-8-[(6-nitro-1,3-benzothiazol-2-yl)thio]-3H-purin-6-amine]", "% Inhibition at 5 μM Compound Concentration": 0.00}
{"smiles": "CC(C)(C)OC(=O)NC(CCn1cnc(N)c2nc(Sc3cc4c(cc3Br)OCO4)nc1-2)C1CC1", "note": "(stereo not shown) [Example 663, tert-butyl (3-{6-amino-8-[(6-bromo-1,3-benzodioxol-5-yl)thio]-3H-purin-3-yl}-1-cyclopropylpropyl)carbamate]", "% Inhibition at 5 μM Compound Concentration": 15}
{"smiles": "COc1ccc(OC)c(Sc2nc3c(N)ncn(CCC(NC(=O)OC(C)(C)C)C4CC4)c-3n2)c1", "note": "(stereo not shown) [Example 665, tert-Butyl(3-{6-amino-8-[(2,5-dimethoxyphenyl)thio]-3H-purin-3-yl}-1-cyclopropylpropyl)carbamate]", "% Inhibition at 5 μM Compound Concentration": 0}
{"smiles": "COc1ccc(OC)c(Sc2nc3c(N)ncn(CCC(NC(=O)OC(C)(C)C)C4CCSCC4)c-3n2)c1", "note": "(stereo not shown) [Example 669, tert-Butyl[3-{6-amino-8-[(2,5-dimethoxyphenyl)thio]-3H-purin-3-yl}-1-(tetrahydro-2H-thiopyran-4-yl)propyl]carbamate]", "% Inhibition at 5 μM Compound Concentration": 10}
{"smiles": "CC(C)(C)OC(=O)NC(CCn1cnc(N)c2nc(Sc3cc4c(cc3Br)OCO4)nc1-2)C1CCC1", "note": "(stereo not shown) [Example 673, tert-Butyl(3-{6-amino-8-[(6-bromo-1,3-benzodioxol-5-yl)thio]-3H-purin-3-yl}-1-cyclobutylpropyl)carbamate]", "% Inhibition at 5 μM Compound Concentration": 0}
{"smiles": "CS(=O)(=O)NC(CCn1cnc(N)c2nc(Sc3cc4c(cc3Br)OCO4)nc1-2)C1CC1", "note": "(stereo not shown) [Example 675, N-(3-{6-Amino-8-[(6-bromo-1,3-benzodioxol-5-yl)thio]-3H-purin-3-yl}-1-cyclopropylpropyl)methanesulfonamide]", "% Inhibition at 5 μM Compound Concentration": 49}
{"smiles": "CC(C)(C)OC(=O)NC(CCn1cnc(N)c2nc(Sc3cc4c(cc3Br)OCO4)nc1-2)C1CCCC1", "note": "(stereo not shown) [Example 680, {3-[6-Amino-8-(6-bromo-benzo[1,3]dioxol-5-ylsulfanyl)-purin-3-yl]-1-cyclopentyl-propyl}-carbamic acid tert-butyl ester]", "% Inhibition at 5 μM Compound Concentration": 14}
{"target": "purified human Hsp90", "assay": "Binding Assay: fluorescence polarization with BODIPY-labeled geldanamycin", "conditions": "BODIPY-GM 10 nM, Hsp90 30 nM", "in_short": "as §1"}
{"smiles": "CC(C)(C)OC(=O)N1CCCC(Cn2c(Sc3cc4c(cc3Br)OCO4)nc3c(N)ncnc32)C1", "note": "(stereo not shown) [Example 641, tert-Butyl 3-({6-amino-8-[(6-bromo-1,3-benzodioxol-5-yl)thio]-9 H-purin-9-yl}methyl)piperidine-1-carboxylate]", "pIC50": 5.96}
{"smiles": "CCOP(=O)(OCC)N1CCCCC1CCn1c(Sc2cc3c(cc2Br)OCO3)nc2c(N)ncnc21", "note": "(stereo not shown) [Example 643, Diethyl [2-(2-{6-amino-8-[(6-bromo-1,3-benzodioxol-5-yl)thio]-9 H-purin-9-yl}ethyl)piperidin-1-yl]phosphonate]", "pIC50": 5.30}
{"smiles": "CCOP(=O)(OCC)N1CCC(CCn2c(Sc3cc4c(cc3Br)OCO4)nc3c(N)ncnc32)CC1", "note": "[Example 644, Diethyl [4-(2-{6-amino-8-[(6-bromo-1,3-benzodioxol-5-yl)thio]-9 H-purin-9-yl}ethyl)piperidin-1-yl]phosphonate]", "pIC50": 6.70}
{"smiles": "CC(C)(C)OC(=O)CN1CCCCC1CCn1c(Sc2cc3c(cc2Br)OCO3)nc2c(N)ncnc21", "note": "(stereo not shown) [Example 645, tert-Butyl [2-(2-{6-amino-8-[(6-bromo-1,3-benzodioxol-5-yl)thio]-9 H-purin-9-yl}ethyl)piperidin-1-yl]acetate]", "pIC50": 6.35}
{"smiles": "Nc1ncnc2c1nc(Sc1cc3c(cc1Br)OCO3)n2CCCC1CCCCN1", "note": "(stereo not shown) [Example 646, 8-[(6-bromo-1,3-benzodioxol-5-yl)thio]-9-(3-piperidin-2-ylpropyl)-9H-purin-6-amine]", "pIC50": 7.22}
{"smiles": "Nc1ncnc2c1nc(Sc1cc3c(cc1Br)OCO3)n2CC1CCNCC1", "note": "[Example 648, 8-[(6-bromo-1,3-benzodioxol-5-yl)thio]-9-(piperidin-4-ylmethyl)-9H-purin-6-amine]", "pIC50": 6.16}
{"smiles": "Nc1ncnc2c1nc(Sc1cc3c(cc1Br)OCO3)n2CCC1CCCCN1CC(=O)O", "note": "(stereo not shown) [Example 650, [2-(2-{6-amino-8-[(6-bromo-1,3-benzodioxol-5-yl)thio]-9H-purin-9-yl}ethyl)piperidin-1-yl]acetic acid]", "pIC50": "< 5.70"}
{"smiles": "CC(=O)N1CCC(CCn2c(Sc3nc4ccc([N+](=O)[O-])cc4s3)nc3c(N)ncnc32)CC1", "note": "[Example 651, 9-[2-(1-Acetylpiperidin-4-yl)ethyl]-8-[(6-nitro-1,3-benzothiazol-2-yl)thio]-9H-purin-6-amine]", "pIC50": "< 5.30"}
{"smiles": "CC(=O)N1CCC(CCn2c(Sc3nc4c(Cl)cccc4s3)nc3c(N)ncnc32)CC1", "note": "[Example 653, 9-[2-(1-Acetylpiperidin-4-yl)ethyl]-8-[(4-chloro-1,3-benzothiazol-2-yl)thio]-9H-purin-6-amine]", "pIC50": "< 5.70"}
{"smiles": "CC(=O)N1CCC(CCn2c(Sc3nc(C)c(C)s3)nc3c(N)ncnc32)CC1", "note": "[Example 654, 9-[2-(1-Acetylpiperidin-4-yl)ethyl]-8-[(4,5-dimethyl-1,3-thiazol-2-yl)thio]-9H-purin-6-amine]", "pIC50": 5.70}
{"smiles": "CC(=O)N1CCC(CCn2c(Sc3nc4ccc(F)cc4s3)nc3c(N)ncnc32)CC1", "note": "[Example 655, 9-[2-(1-Acetylpiperidin-4-yl)ethyl]-8-[(6-fluoro-1,3-benzothiazol-2-yl)thio]-9H-purin-6-amine]", "pIC50": "< 5.30"}
{"smiles": "CC(=O)N1CCC(CCn2c(Sc3nc4cc(Cl)ccc4s3)nc3c(N)ncnc32)CC1", "note": "[Example 656, 9-[2-(1-Acetylpiperidin-4-yl)ethyl]-8-[(5-chloro-1,3-benzothiazol-2-yl)thio]-9H-purin-6-amine]", "pIC50": "< 5.30"}
{"smiles": "CC(=O)N1CCC(CCn2c(Sc3nc4cccc(Cl)c4s3)nc3c(N)ncnc32)CC1", "note": "[Example 657, 9-[2-(1-Acetylpiperidin-4-yl)ethyl]-8-[(7-chloro-1,3-benzothiazol-2-yl)thio]-9H-purin-6-amine]", "pIC50": 6.72}
{"smiles": "COc1ccc2sc(Sc3nc4c(N)ncnc4n3CCC3CCN(C(C)=O)CC3)nc2c1", "note": "[Example 658, 9-[2-(1-Acetylpiperidin-4-yl)ethyl]-8-[(5-methoxy-1,3-benzothiazol-2-yl)thio]-9H-purin-6-amine]", "pIC50": "< 5.30"}
{"smiles": "CC(=O)N1CCC(CCn2c(Sc3nc4ccccc4s3)nc3c(N)ncnc32)CC1", "note": "[Example 659, 9-[2-(1-Acetylpiperidin-4-yl)ethyl]-8-(1,3-benzothiazol-2-ylthio)-9H-purin-6-amine]", "pIC50": 5.40}
{"smiles": "CC(=O)N1CCC(CCn2c(Sc3nc(C)c(CC(N)=O)s3)nc3c(N)ncnc32)CC1", "note": "[Example 660, 2-[2-({9-[2-(1-Acetylpiperidin-4-yl)ethyl]-6-amino-9H-purin-8-yl}thio)-4-methyl-1,3-thiazol-5-yl]acetamide]", "pIC50": "< 5.30"}
{"smiles": "Nc1ncnc2c1nc(Sc1nc3cccc(Cl)c3s1)n2CCC1CCN(C=O)CC1", "note": "[Example 661, 4-(2-{6-Amino-8-[(7-chloro-1,3-benzothiazol-2-yl)thio]-9H-purin-9yl}-ethyl)-piperidin-1-carbaldehyde]", "pIC50": 7.22}
{"smiles": "CC(C)(C)OC(=O)NC(CCn1c(Sc2cc3c(cc2Br)OCO3)nc2c(N)ncnc21)C1CC1", "note": "(stereo not shown) [Example 662, tert-Butyl (3-{6-amino-8-[(6-bromo-1,3-benzodioxol-5-yl)thio]-9H-purin-9-yl}-1-cyclopropylpropyl)carbamate]", "pIC50": 6.52}
{"smiles": "CC(C)(C)OC(=O)NC(CCn1c(Sc2cc3c(cc2Br)OCO3)nc2c(N)ncnc21)C1CCSCC1", "note": "(stereo not shown) [Example 666, tert-Butyl[3-{6-amino-8-[(6-bromo-1,3-benzodioxol-5-yl)thio]-9H-purin-9-yl}-1-(tetrahydro-2H-thiopyran-4-yl)propyl]carbamate]", "pIC50": 6.10}
{"smiles": "COc1ccc(OC)c(Sc2nc3c(N)ncnc3n2CCC(NC(=O)OC(C)(C)C)C2CCSCC2)c1", "note": "(stereo not shown) [Example 668, tert-Butyl[3-{6-amino-8-[(2,5-dimethoxyphenyl)thio]-9H-purin-9-yl}-1-(tetrahydro-2H-thiopyran-4-yl)propyl]carbamate]", "pIC50": 5.32}
{"smiles": "CC(C)(C)OC(=O)NC(CCn1c(Sc2cc3c(cc2Br)OCO3)nc2c(N)ncnc21)C1CCCCC1", "note": "(stereo not shown) [Example 670, tert-Butyl(3-{6-amino-8-[(6-bromo-1,3-benzodioxol-5-yl)thio]-9H-purin-9-yl}-1-cyclohexylpropyl)carbamate]", "pIC50": 5.80}
{"smiles": "CC(C)(C)OC(=O)NC(CCn1cnc(N)c2nc(Sc3cc4c(cc3Br)OCO4)nc1-2)C1CCCCC1", "note": "(stereo not shown) [Example 671, tert-Butyl(3-{6-amino-8-[(6-bromo-1,3-benzodioxol-5-yl)thio]-3H-purin-3-yl}-1-cyclohexylpropyl)carbamate]", "pIC50": 6.00}
{"smiles": "CC(C)(C)OC(=O)NC(CCn1c(Sc2cc3c(cc2Br)OCO3)nc2c(N)ncnc21)C1CCC1", "note": "(stereo not shown) [Example 672, tert-Butyl(3-{6-amino-8-[(6-bromo-1,3-benzodioxol-5-yl)thio]-9H-purin-9-yl}-1-cyclobutylpropyl)carbamate]", "pIC50": 6.05}
{"smiles": "CS(=O)(=O)NC(CCn1c(Sc2cc3c(cc2Br)OCO3)nc2c(N)ncnc21)C1CC1", "note": "(stereo not shown) [Example 674, N-(3-{6-Amino-8-[(6-bromo-1,3-benzodioxol-5-yl)thio]-9H-purin-9-yl}-1-cyclopropylpropyl)methanesulfonamide]", "pIC50": 7.10}
{"smiles": "COc1ccc(OC)c(Sc2nc3c(N)ncnc3n2CCC(NS(C)(=O)=O)C2CC2)c1", "note": "(stereo not shown) [Example 676, N-(3-{6-Amino-8-[(2,5-dimethoxyphenyl)thio]-9H-purin-9-yl}-1-cyclopropylpropyl)methanesulfonamide]", "pIC50": 6.02}
